Reference: ChEMBL document CHEMBL1201862, “PubChem BioAssay data set” (2004)
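Results reflect a 48-hour exposure of cells in 96-well plates to compound at five concentrations. GI50 is the concentration that inhibits growth by half.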 Calls of active or inactive are those of the source. Rule as the data show it: active = GI50 up to about 1.1 µM and inactive = higher.

Columns and labels:
Test in all cases: NCI anticancer screen, dose series, 48 h
786-0 = test system: 786-0
ACHN = test system: ACHN
BT-549 = test system: BT-549
CAKI-1 = test system: CAKI-1
DU-145 = test system: DU-145
KM12 = test system: KM12
M14 = test system: M14
MDA-MB-435 = test system: MDA-MB-435
MDA-N = test system: MDA-N
NCI-H522 = test system: NCI-H522
NCI/ADR-RES = test system: NCI/ADR-RES
OVCAR-4 = test system: OVCAR-4
OVCAR-8 = test system: OVCAR-8
RXF 393 = test system: RXF 393
SF-268 = test system: SF-268
SK-MEL-2 = test system: SK-MEL-2
SK-MEL-5 = test system: SK-MEL-5
SNB-75 = test system: SNB-75
T47D = test system: T47D
UO-31 = test system: UO-31

SMILES: CN(C)CCNC(=O)c1ccc(NCCCN(C)CCCNc2ccc(C(=O)NCCN(C)C)c3nc4ccc([N+](=O)[O-])cc4c(O)c23)c2c(O)c3cc([N+](=O)[O-])ccc3nc12
- GI50 (786-0): < 0.0197 µM (active)
- GI50 (ACHN): < 0.0121 µM (active)
- GI50 (BT-549): 0.447 µM (active)
- GI50 (CAKI-1): 0.757 µM (active)
- GI50 (DU-145): < 0.0272 µM (active)
- GI50 (KM12): 0.04 µM (active)
- GI50 (M14): 0.5 µM (active)
- GI50 (MDA-MB-435): 0.0861 µM (active)
- GI50 (MDA-N): 0.155 µM (active)
- GI50 (NCI-H522): < 0.01 µM (active)
- GI50 (NCI/ADR-RES): 1.23 µM (inactive)
- GI50 (OVCAR-4): 0.127 µM (active)
- GI50 (OVCAR-8): < 0.01 µM (active)
- GI50 (RXF 393): 0.101 µM (active)
- GI50 (SF-268): 0.065 µM (active)
- GI50 (SK-MEL-2): 0.0111 µM (active)
- GI50 (SK-MEL-5): 0.0346 µM (active)
- GI50 (SNB-75): 0.14 µM (active)
- GI50 (T47D): 0.32 µM (active)
- GI50 (UO-31): 0.154 µM (active)

SMILES: N#CC(NNC(=O)c1c(Cl)c(Cl)c(Cl)c(Cl)c1-c1nc2cc(C(=O)c3ccccc3)ccc2[nH]1)c1ccccc1 (stereo not given)
- GI50 (786-0): 12.2 µM (inactive)
- GI50 (ACHN): 10.6 µM (inactive)
- GI50 (BT-549): 9.2 µM (inactive)
- GI50 (CAKI-1): 21.4 µM (inactive)
- GI50 (DU-145): 24.3 µM (inactive)
- GI50 (KM12): 7.45 µM (inactive)
- GI50 (M14): 7.46 µM (inactive)
- GI50 (MDA-MB-435): 2.82 µM (inactive)
- GI50 (MDA-N): 2.56 µM (inactive)
- GI50 (NCI-H522): 3.39 µM (inactive)
- GI50 (NCI/ADR-RES): 3.43 µM (inactive)
- GI50 (OVCAR-4): 7.13 µM (inactive)
- GI50 (OVCAR-8): 23.7 µM (inactive)
- GI50 (RXF 393): 3.18 µM (inactive)
- GI50 (SF-268): 7.83 µM (inactive)
- GI50 (SK-MEL-2): 8.91 µM (inactive)
- GI50 (SK-MEL-5): 3.4 µM (inactive)
- GI50 (SNB-75): 3.95 µM (inactive)
- GI50 (T47D): 4.79 µM (inactive)
- GI50 (UO-31): 14 µM (inactive)

SMILES: Clc1ccccc1-c1nc2cc(C34CC5CC(CC(C5)C3)C4)ccc2[nH]1
- GI50 (786-0): 12.1 µM (inactive)
- GI50 (ACHN): 11.6 µM (inactive)
- GI50 (BT-549): 20 µM (inactive)
- GI50 (CAKI-1): 31.4 µM (inactive)
- GI50 (DU-145): 23.2 µM (inactive)
- GI50 (KM12): 53.2 µM (inactive)
- GI50 (M14): 19.8 µM (inactive)
- GI50 (MDA-MB-435): > 100 µM (inactive)
- GI50 (MDA-N): 44 µM (inactive)
- GI50 (NCI-H522): 17 µM (inactive)
- GI50 (NCI/ADR-RES): 28.1 µM (inactive)
- GI50 (OVCAR-4): 21.5 µM (inactive)
- GI50 (OVCAR-8): 10.9 µM (inactive)
- GI50 (RXF 393): 5.4 µM (inactive)
- GI50 (SF-268): 41.1 µM (inactive)
- GI50 (SK-MEL-2): 15 µM (inactive)
- GI50 (SK-MEL-5): 32.7 µM (inactive)
- GI50 (SNB-75): 5.71 µM (inactive)
- GI50 (T47D): 10.9 µM (inactive)
- GI50 (UO-31): 14.7 µM (inactive)

SMILES: C[C@@H]1CC[C@@H]2[C@@H](C1)O[C@@H]([C@@H](C)OCc1ccccc1)SC2(C)C
- GI50 (786-0): 19.2 µM (inactive)
- GI50 (ACHN): 17.3 µM (inactive)
- GI50 (BT-549): 22.1 µM (inactive)
- GI50 (CAKI-1): 14.9 µM (inactive)
- GI50 (DU-145): 30.8 µM (inactive)
- GI50 (KM12): 18.7 µM (inactive)
- GI50 (M14): 19.3 µM (inactive)
- GI50 (MDA-MB-435): 16.9 µM (inactive)
- GI50 (MDA-N): 18.4 µM (inactive)
- GI50 (NCI-H522): 14.8 µM (inactive)
- GI50 (NCI/ADR-RES): 20.1 µM (inactive)
- GI50 (OVCAR-4): 20.1 µM (inactive)
- GI50 (OVCAR-8): 22.4 µM (inactive)
- GI50 (RXF 393): 15.4 µM (inactive)
- GI50 (SF-268): 23 µM (inactive)
- GI50 (SK-MEL-2): 15.8 µM (inactive)
- GI50 (SK-MEL-5): 16.3 µM (inactive)
- GI50 (SNB-75): 16.2 µM (inactive)
- GI50 (T47D): 14.7 µM (inactive)
- GI50 (UO-31): 16.4 µM (inactive)

SMILES: CN(C)c1ccc(/C=C(\NC(=O)c2ccccc2)C2NC(Cc3c[nH]c4ccccc34)C(=O)O2)cc1 (stereo not given)
- GI50 (786-0): 12.2 µM (inactive)
- GI50 (ACHN): 8.85 µM (inactive)
- GI50 (BT-549): 12.1 µM (inactive)
- GI50 (CAKI-1): > 59 µM (inactive)
- GI50 (DU-145): > 100 µM (inactive)
- GI50 (KM12): 6.71 µM (inactive)
- GI50 (M14): 42.2 µM (inactive)
- GI50 (MDA-MB-435): 10.8 µM (inactive)
- GI50 (MDA-N): 34.8 µM (inactive)
- GI50 (NCI-H522): 3.46 µM (inactive)
- GI50 (NCI/ADR-RES): > 100 µM (inactive)
- GI50 (OVCAR-4): 12.3 µM (inactive)
- GI50 (OVCAR-8): 5.98 µM (inactive)
- GI50 (RXF 393): > 91 µM (inactive)
- GI50 (SF-268): 11.6 µM (inactive)
- GI50 (SK-MEL-2): 27.3 µM (inactive)
- GI50 (SK-MEL-5): 8.85 µM (inactive)
- GI50 (SNB-75): 39.4 µM (inactive)
- GI50 (T47D): > 54 µM (inactive)
- GI50 (UO-31): 17.3 µM (inactive)

SMILES: CC1=C(O)C(=O)C=C2C1=CC=C1[C@@]2(C)CC[C@@]2(C)[C@@H]3C[C@](C)(C(=O)O)CC[C@]3(C)CC[C@]12C [CELASTROL]
- GI50 (786-0): 0.0147 µM (active)
- GI50 (ACHN): 0.0169 µM (active)
- GI50 (BT-549): 0.0124 µM (active)
- GI50 (CAKI-1): 0.0135 µM (active)
- GI50 (DU-145): 0.0675 µM (active)
- GI50 (KM12): 0.169 µM (active)
- GI50 (M14): 0.0449 µM (active)
- GI50 (MDA-MB-435): 0.0351 µM (active)
- GI50 (MDA-N): 0.0234 µM (active)
- GI50 (NCI-H522): 0.0143 µM (active)
- GI50 (NCI/ADR-RES): 0.0255 µM (active)
- GI50 (OVCAR-4): 0.0188 µM (active)
- GI50 (OVCAR-8): 0.0226 µM (active)
- GI50 (RXF 393): 0.0111 µM (active)
- GI50 (SF-268): 0.0446 µM (active)
- GI50 (SK-MEL-2): 0.119 µM (active)
- GI50 (SK-MEL-5): 0.07 µM (active)
- GI50 (SNB-75): 0.132 µM (active)
- GI50 (T47D): 0.0198 µM (active)
- GI50 (UO-31): 0.0308 µM (active)
